Key:
[1] = Equilibrium humidity evaluation 75% RH/40° C., 10 days (Example 8, Experiment 6); assay type: physicochemical
Experimental: The experimental procedure that accompany this experiment is provided in Section G.ii.
All forms were maintained under constant equilibrium humidity (75% RH). XRPD, DSC, TGA, PLM and ^1H NMR analyses were performed on the absorbents at t=5 d and t=10 d, to confirm their physical fates and to determine the extent of residual solvent exchange or sequestration.
100 mg portions of Tabernanthalog salts ([…]) were placed in the relevant open vials. The powders were finely divided and distributed evenly over the base of the vial, such that equal material coverage across the panel was observed. These samples were then maintained 40° C. under 75% RH. The samples were sub-sampled at intervals of 5 and 10 days and analyzed by ^1H NMR, HPLC, XRPD, DSC, TGA and PLM, for evidence of phase change or chemical degradation.

[2] = Solubility determinations in SIF buffers FaSSIF, FeSSIF, FaSSGF (Example 8, Experiment 5)
Experimental: The temperature was maintained at 37° C. for 24 h. […] The suspensions were sampled at the relevant time points and centrifuged. The centrifuged pellets, obtained at the time points were analysed by XRPD as a wet pellet and dried, for evidence of form change.
The temperature was maintained at 37° C. for 24 h.
The suspension was sampled at the relevant time points and centrifuged. […] The centrifuged pellets, obtained at the time points were analyzed by XRPD as a wet pellet and dried, for evidence of form change.

[3] = assay type: physicochemical; details: salt screen, Experiment 2
Experimental: Tabernanthalog (native) (50 mg, 1 wt) was charged to a solution of the relevant counter ion (1.0 mol equivalence of counter ion) in ethanol (5.0 vol, 250 μl). The mixtures were warmed to 85° C. and small aliquots of water were added until dissolution occurred (Table 212 for additional charges of solvent). The solutions were cooled and allowed to stand undisturbed under sub-ambient conditions overnight (Table 211). […] Products were isolated via centrifugation. The corresponding pellets were sub-sampled and analyzed wet by XRPD; after which, they were dried at 40° C. under reduced pressure over 20 h and reanalyzed by XRPD. […] Once the crystallization experiments were completed, salt formation was confirmed by ^1H NMR, XRPD, DSC and TGA.

[4] = Dynamic vapour sorption (DVS) of selected salts (Example 8); assay type: physicochemical
Experimental: DVS: The moisture sorption properties of the feed API were analyzed by DVS Intrinsic instrument (Surface Measurement System). Approximately 20-50 mg of API was weighed on an aluminum pan and loaded into the instrument equilibrated at 25° C. The sample was allowed to equilibrate under dry atmosphere (0% relative humidity) for 60 minutes before increasing the humidity from 0% to 30% at 5% step increment and from 30% to 90% at 10% step increment. A desorption cycle was also applied from 90% to 30% (10% step) and from 30% to 0% (5% decrement). A rate of change in mass per time unit (dm/dt) of 0.002%/min was set as the equilibrium parameter. Kinetic and isotherm graphs were calculated.

[5] = input batch 3-B1, before SIF buffer

## COc1ccc2c3c([nH]c2c1)CCN(C)CC3.O=C(O)c1ccccc1 [Sample 6-C1]
[1]; Benzoate salt, t = 5 d at 75% RH at 40° C.
  Tabernanthalog RRT = 1.00 (trended HPLC data, chemical purity): 98.36

## COc1ccc2c3c([nH]c2c1)CCN(C)CC3.O=C(O)c1ccccc1 [Sample 16-C2]
[1]; Benzoate salt, t = 10 d at 75% RH at 40° C.
  Tabernanthalog RRT = 1.00 (trended HPLC data, chemical purity): 98.17

## COc1ccc2c3c([nH]c2c1)CCN(C)CC3.O=C(O)C(O)C(O)C(=O)O [Sample 6-B1]
[1]; Tartrate salt, t = 5 d at 75% RH at 40° C.
  Tabernanthalog RRT = 1.00 (trended HPLC data, chemical purity): 98.86

## COc1ccc2c3c([nH]c2c1)CCN(C)CC3.O=C(O)c1ccccc1 [Tabernanthalog · Benzoate]
[2]; [5]
  Trended HPLC data, Tabernanthalog (RRT 1.00): 99.23 % area
  Trended HPLC data, peak at RRT 0.86: 0.02 % area
  Trended HPLC data, peak at RRT 0.89: 0.04 % area
  Trended HPLC data, peak at RRT 0.93: 0.61 % area
  Trended HPLC data, peak at RRT 1.09: 0.08 % area
  Trended HPLC data, peak at RRT 1.11: 0.02 % area
[2]; t = 1 h in FaSSGF
  Trended HPLC data, Tabernanthalog (RRT 1.00): 99.33 % area
  Trended HPLC data, peak at RRT 0.93: 0.55 % area
  Trended HPLC data, peak at RRT 1.09: 0.07 % area
  Trended HPLC data, peak at RRT 1.10: 0.02 % area
  Trended HPLC data, peak at RRT 1.11: 0.03 % area
[2]; t = 1 h in FaSSIF
  Trended HPLC data, Tabernanthalog (RRT 1.00): 98.67 % area
  Trended HPLC data, peak at RRT 0.93: 0.92 % area
  Trended HPLC data, peak at RRT 1.08: 0.13 % area
  Trended HPLC data, peak at RRT 1.11: 0.28 % area
[2]; t = 1 h in FeSSIF
  Trended HPLC data, Tabernanthalog (RRT 1.00): 99.05 % area
  Trended HPLC data, peak at RRT 0.93: 0.84 % area
  Trended HPLC data, peak at RRT 1.08: 0.11 % area
[2]; t = 3 h in FaSSGF
  Trended HPLC data, Tabernanthalog (RRT 1.00): 99.34 % area
  Trended HPLC data, peak at RRT 0.93: 0.58 % area
  Trended HPLC data, peak at RRT 1.09: 0.07 % area
[2]; t = 3 h in FaSSIF
  Trended HPLC data, Tabernanthalog (RRT 1.00): 98.77 % area
  Trended HPLC data, peak at RRT 0.93: 1.04 % area
  Trended HPLC data, peak at RRT 1.08: 0.20 % area
[2]; t = 3 h in FeSSIF
  Trended HPLC data, Tabernanthalog (RRT 1.00): 99.03 % area
  Trended HPLC data, peak at RRT 0.93: 0.81 % area
  Trended HPLC data, peak at RRT 1.08: 0.10 % area
  Trended HPLC data, peak at RRT 1.11: 0.06 % area
[2]; t = 6 h in FaSSGF
  Trended HPLC data, Tabernanthalog (RRT 1.00): 99.33 % area
  Trended HPLC data, peak at RRT 0.93: 0.59 % area
  Trended HPLC data, peak at RRT 1.09: 0.08 % area
[2]; t = 6 h in FaSSIF
  Trended HPLC data, Tabernanthalog (RRT 1.00): 98.58 % area
  Trended HPLC data, peak at RRT 0.93: 1.26 % area
  Trended HPLC data, peak at RRT 1.08: 0.16 % area
[2]; t = 6 h in FeSSIF
  Trended HPLC data, Tabernanthalog (RRT 1.00): 98.69 % area
  Trended HPLC data, peak at RRT 0.93: 1.00 % area
  Trended HPLC data, peak at RRT 1.08: 0.15 % area
  Trended HPLC data, peak at RRT 1.10: 0.07 % area
  Trended HPLC data, peak at RRT 1.11: 0.09 % area
[2]; t = 24 h in FaSSGF
  Trended HPLC data, Tabernanthalog (RRT 1.00): 99.29 % area
  Trended HPLC data, peak at RRT 0.93: 0.63 % area
  Trended HPLC data, peak at RRT 1.09: 0.08 % area
[2]; t = 24 h in FaSSIF
  Trended HPLC data, Tabernanthalog (RRT 1.00): 98.01 % area
  Trended HPLC data, peak at RRT 0.93: 1.51 % area
  Trended HPLC data, peak at RRT 1.08: 0.24 % area
  Trended HPLC data, peak at RRT 1.10: 0.11 % area
  Trended HPLC data, peak at RRT 1.11: 0.13 % area
[2]; t = 24 h in FeSSIF
  Trended HPLC data, Tabernanthalog (RRT 1.00): 98.17 % area
  Trended HPLC data, peak at RRT 0.89: 0.15 % area
  Trended HPLC data, peak at RRT 0.93: 1.36 % area
  Trended HPLC data, peak at RRT 1.08: 0.19 % area
  Trended HPLC data, peak at RRT 1.10: 0.13 % area
[3]
  Discrete melt (DSC)?: ✓
  Flat baseline (DSC)?: ✓
  Flat baseline pre-melt (TGA)?: ✓
  Unique XRPD?: ✓

## COc1ccc2c3c([nH]c2c1)CCN(C)CC3.O=C(O)/C=C/C(=O)O [8-A4 of Example 5]
[1]; Fumarate salt, input before humidity exposure
  Tabernanthalog RRT = 1.00 (trended HPLC data, chemical purity): 99.04

## COc1ccc2c3c([nH]c2c1)CCN(C)CC3.O=C(O)C(O)C(O)C(=O)O [tabernanthalog tartrate salt]
[1]; 75% RH/40° C., after 10 days
  change in chemical purity (trended HPLC): largest decrease in chemical purity
[1]; 75% RH/40° C., t=5 d and t=10 d
  water uptake / hydrate formation (TGA, DSC): no significant water absorption
[1]; 75% RH/40° C., t=5 days and t=10 days
  powder diffraction pattern versus input (form stability): no significant changes to the powder diffraction pattern
[1]; Tartrate salt, input before humidity exposure
  Tabernanthalog RRT = 1.00 (trended HPLC data, chemical purity): 99.39
[4]; 0 to 90 to 0% RH, 25° C., dm/dt 0.002%/min
  DVS sorption/desorption isotherm: hygroscopic type of isotherm
[4]; desorption, 0.0% RH
  DVS 0 to 90 to 0% RH (dm/dt <0.002%), mass change: 0.02%
[4]; desorption, 5.0% RH
  DVS 0 to 90 to 0% RH (dm/dt <0.002%), mass change: 0.03%
[4]; desorption, 10.0% RH
  DVS 0 to 90 to 0% RH (dm/dt <0.002%), mass change: 0.04%
[4]; desorption, 15.0% RH
  DVS 0 to 90 to 0% RH (dm/dt <0.002%), mass change: 0.07%
[4]; desorption, 20.0% RH
  DVS 0 to 90 to 0% RH (dm/dt <0.002%), mass change: 0.08%
[4]; desorption, 25.0% RH
  DVS 0 to 90 to 0% RH (dm/dt <0.002%), mass change: 0.11%
[4]; desorption, 30.0% RH
  DVS 0 to 90 to 0% RH (dm/dt <0.002%), mass change: 0.13%
[4]; desorption, 40.0% RH
  DVS 0 to 90 to 0% RH (dm/dt <0.002%), mass change: 0.20%
[4]; desorption, 50.0% RH
  DVS 0 to 90 to 0% RH (dm/dt <0.002%), mass change: 0.27%
[4]; desorption, 60.0% RH
  DVS 0 to 90 to 0% RH (dm/dt <0.002%), mass change: 0.37%
[4]; desorption, 70.0% RH
  DVS 0 to 90 to 0% RH (dm/dt <0.002%), mass change: 0.51%
[4]; desorption, 80.0% RH
  DVS 0 to 90 to 0% RH (dm/dt <0.002%), mass change: 0.75%
[4]; desorption, 90.0% RH
  DVS 0 to 90 to 0% RH (dm/dt <0.002%), mass change: 1.34%
[4]; sorption, 0.0% RH
  DVS 0 to 90 to 0% RH (dm/dt <0.002%), mass change: 0.00%
[4]; sorption, 5.0% RH
  DVS 0 to 90 to 0% RH (dm/dt <0.002%), mass change: 0.01%
[4]; sorption, 10.0% RH
  DVS 0 to 90 to 0% RH (dm/dt <0.002%), mass change: 0.02%
[4]; sorption, 15.0% RH
  DVS 0 to 90 to 0% RH (dm/dt <0.002%), mass change: 0.04%
[4]; sorption, 20.0% RH
  DVS 0 to 90 to 0% RH (dm/dt <0.002%), mass change: 0.05%
[4]; sorption, 25.0% RH
  DVS 0 to 90 to 0% RH (dm/dt <0.002%), mass change: 0.07%
[4]; sorption, 30.0% RH
  DVS 0 to 90 to 0% RH (dm/dt <0.002%), mass change: 0.10%
[4]; sorption, 40.0% RH
  DVS 0 to 90 to 0% RH (dm/dt <0.002%), mass change: 0.16%
[4]; sorption, 50.0% RH
  DVS 0 to 90 to 0% RH (dm/dt <0.002%), mass change: 0.24%
[4]; sorption, 60.0% RH
  DVS 0 to 90 to 0% RH (dm/dt <0.002%), mass change: 0.34%
[4]; sorption, 70.0% RH
  DVS 0 to 90 to 0% RH (dm/dt <0.002%), mass change: 0.48%
[4]; sorption, 80.0% RH
  DVS 0 to 90 to 0% RH (dm/dt <0.002%), mass change: 0.72%
[4]; sorption, 90.0% RH
  DVS 0 to 90 to 0% RH (dm/dt <0.002%), mass change: 1.34%

Reference: patent US20230257385A1, “SALT AND SOLID FORMS OF TABERNANTHALOG” (priority 2021, published 2023)
